Patent publication US8329643B2, “PIMAP39 modulates LPS-induced inflammatory response” (Trustees of Boston University, priority 2008, dated 2012)
Entries after “also recorded” stand apart in the source; their conditions may differ. No end group written: not given here.

Columns and labels:
[1] = test system: white blood cells within the liver sections; experiment: Fluorescence microscopy detection of FITC-labeled PIMAP39 in mouse liver sections after tail vein injection; format: in vivo; settings: 1 mg FITC-PIMAP39 by tail vein injection, one hour post injection, vs DMSO alone
Experimental: Macrophage samples: Cells (5×10^3) from 3 month old mice were seeded over cover slips (22 mm) in 6-well plates and were treated with 500 ng/ml FITC-PIMAP39 (B) or DMSO alone (A) and continuously incubated overnight. Cover slips were removed and cells were stained with 50 nM LysoTracker Red DND-99 (Invitrogen) for 1.5 hours and then air-dried. Tissue section samples: Mice were treated with 1 mg of FITC-PIMAP39 (E, F) or DMSO alone as control (C, D), by tail vein injection as described. One hour post injection mice were sacrificed and their livers were harvested. Harvested livers were set in uniform orientations in molds using Histoprep™ (Fisher). 10 μm thick cross-sections were cut and transferred with a paintbrush to glass slides followed by H & E staining. Cross-sections were made at −24° C. using an HM505E cryostat (Microm). Both the treated cells and sections above were exposed to visible light for structural identification (C & E) and fluorescent light for signal location (A, B, D & F) by Olympus BX40 microscope at 200× (A & B) or 1000× (C-F) magnification and photographed. The FITC-PIMAP39-induced fluorescent signal in some macrophages (B) or in the leukocytes within the veins of the liver (F) was observed. The images were taken with a MicroFIRE camera under exposure time (1 second for fluorescent light, 30 second for visible light). […]

[2] = test system: LPS-induced endotoxic shock; experiment: Endotoxic shock assay: survival of mice after lethal dose of LPS + D-Gal; format: in vivo, mouse; settings: lethal dose LPS + control peptide
Experimental: (§1) (A) Weight-matched wild-type mice (n=15) were injected intraperitoneal (i.p.) with a lethal dose of LPS (1 mg D-Gal+12.5 ng LPS per gram body weight) followed immediately by tail vein injection of DMSO (black line), 40 µg/g SCpep as control (green line) or […] PIMAP39 (red line). The treated mice were monitored for their behavior and mortality every hour. The survival time of each treated mouse was graphed. […] (B) Blood was collected every 2 hours post injection for a total duration of 6 hours. Mice were warmed under heating lamps to promote blood flow and a small incision was made on the tail. About 10-50 μl of blood was collected per animal at each time point (2, 4 or 6 hours). […] Pooled plasma samples from the mice within each group were measured in triplets by ELISA (Abraxis) to see the effects of PIMAP39 on TNF-α production. ELISA immunoreactivity was quantitated using a microplate reader (Bio-Rad) and the results from the 6 hr mark were graphed (only the data for LPS+DMSO and LPS+PIMAP39 are presented here due to the similarity between LPS+DMSO and LPS+SCepetide). […]
(§2) To investigate how PIMAP39 mediates endotoxic shock, 3 month old, weight matched mice were treated with a lethal dose of LPS (12.5 ng LPS+1 mg D-Gal per gram body weight) followed immediately by a tail vein injection of PIMAP39 or controls. The treated mice were monitored for their behavior and mortality every hour. […]

[3] = test system: TNF-α; experiment: Plasma TNF-α by ELISA in the endotoxic shock assay; format: in vivo, mouse; settings: 6 hr mark
Experimental: as §1, §2

Row | Sequence | presence / uptake of peptide in white blood cells in vivo (liver sections, fluorescent signal) [1] | time at which deaths occurred [2] [h] | time at which most mice became sick [2] [h] | plasma TNF-α compared with LPS+DMSO [3]
1 | KYGATTVVRVCEVTYDKTPLEKDGITVV [PIMAP39] | cell permeable; also recorded: taken up | – | – | –
2 | VTGKLTDTEVVTAYVIDEPKYVCRVTGK [SCpep] | – | 6 to 8 | 3 to 4 | similarity
